Measurements: PubChem BioAssay AID2060901 (Molecular Pharmacology Branch, DTP, NCI, 2025)

Test system: 422866-222-R5-J1-PDC complex spheroids viability
Assay: Anticancer human tumor 422866-222-R5-J1-PDC patient-derived pancreatic adenocarcinoma cell line growth inhibition [RAS]
Details: for IC50: curve of first compound; for viability, T/C: stronger effect = lower value
In short: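 Agents were tested in combination matrices in half-log decrements from a top concentration at or near clinical Cmax (10 microM if undetermined). Targets were multi-cell spheroids of tumour lines plus HUVEC and MSC stromal cells.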

[1] = second compound 0.0316 µM, first compound 0.00316 µM
[2] = second compound 0.0316 µM, first compound 0.01 µM
[3] = second compound 0.0316 µM, first compound 0.0316 µM
[4] = second compound 0.0316 µM, first compound 0.1 µM
[5] = second compound 0.0316 µM, first compound 0.316 µM
[6] = second compound 0.0316 µM, first compound 1 µM
[7] = second compound 0.1 µM, first compound 0.00316 µM
[8] = second compound 0.1 µM, first compound 0.01 µM
[9] = second compound 0.1 µM, first compound 0.0316 µM
[10] = second compound 0.1 µM, first compound 0.1 µM
[11] = second compound 0.1 µM, first compound 0.316 µM
[12] = second compound 0.1 µM, first compound 1 µM
[13] = second compound 0.316 µM, first compound 0.00316 µM
[14] = second compound 0.316 µM, first compound 0.01 µM
[15] = second compound 0.316 µM, first compound 0.0316 µM
[16] = second compound 0.316 µM, first compound 0.1 µM
[17] = second compound 0.316 µM, first compound 0.316 µM
[18] = second compound 0.316 µM, first compound 1 µM
[19] = second compound 1 µM, first compound 0.00316 µM
[20] = second compound 1 µM, first compound 0.01 µM
[21] = second compound 1 µM, first compound 0.0316 µM
[22] = second compound 1 µM, first compound 0.1 µM
[23] = second compound 1 µM, first compound 0.316 µM
[24] = second compound 1 µM, first compound 1 µM
[25] = second compound 3.16 µM, first compound 0.00316 µM
[26] = second compound 3.16 µM, first compound 0.01 µM
[27] = second compound 3.16 µM, first compound 0.0316 µM
[28] = second compound 3.16 µM, first compound 0.1 µM
[29] = second compound 3.16 µM, first compound 0.316 µM
[30] = second compound 3.16 µM, first compound 1 µM
[31] = second compound 10 µM, first compound 0.00316 µM
[32] = second compound 10 µM, first compound 0.01 µM
[33] = second compound 10 µM, first compound 0.0316 µM
[34] = second compound 10 µM, first compound 0.1 µM
[35] = second compound 10 µM, first compound 0.316 µM
[36] = second compound 10 µM, first compound 1 µM
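Note: spheroids exposed to compounds for 7 days.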
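Throughout, for viability, T/C: 100% = DMSO vehicle control viability.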

SMILES: O=C(c1ccc(F)c(F)c1Nc1ccc(I)cc1F)N1CC(O)([C@@H]2CCCCN2)C1 + C#Cc1c(F)ccc2cc(O)cc(-c3ncc4c(N5CC6CCC(C5)N6)nc(OCC56CCCN5CC(F)C6)nc4c3F)c12
- IC50 (second compound 0.0316 µM): 45.2 nM
- IC50 (second compound 0.1 µM): 274 nM
- IC50 (second compound 0.316 µM): 19.8 nM
- IC50 (second compound 1 µM): 3.62 nM
- IC50 (second compound 3.16 µM): < 3.16 nM
- IC50 (second compound 10 µM): < 3.16 nM
- viability, T/C [1]: 70.1%
- viability, T/C [2]: 82.2%
- viability, T/C [3]: 52.4%
- viability, T/C [4]: 47.6%
- viability, T/C [5]: 41.5%
- viability, T/C [6]: 44.6%
- viability, T/C [7]: 81.9%
- viability, T/C [8]: 71.6%
- viability, T/C [9]: 65.8%
- viability, T/C [10]: 53.6%
- viability, T/C [11]: 49.1%
- viability, T/C [12]: 46.6%
- viability, T/C [13]: 75.4%
- viability, T/C [14]: 53.2%
- viability, T/C [15]: 46.7%
- viability, T/C [16]: 43.2%
- viability, T/C [17]: 34.9%
- viability, T/C [18]: 33.3%
- viability, T/C [19]: 50%
- viability, T/C [20]: 45.3%
- viability, T/C [21]: 31.3%
- viability, T/C [22]: 32.1%
- viability, T/C [23]: 26.9%
- viability, T/C [24]: 26.4%
- viability, T/C [25]: 38.2%
- viability, T/C [26]: 26.1%
- viability, T/C [27]: 24.6%
- viability, T/C [28]: 24%
- viability, T/C [29]: 19.9%
- viability, T/C [30]: 15.7%
- viability, T/C [31]: 19.8%
- viability, T/C [32]: 17.8%
- viability, T/C [33]: 17.9%
- viability, T/C [34]: 14%
- viability, T/C [35]: 12.2%
- viability, T/C [36]: 14.2%

SMILES: CCC(CC)c1cc(NC2CCC(N)C2)n2nccc2n1 (stereo unspecified) + CCn1c(-c2cc(N3CCN(C)CC3)cnc2C(C)OC)c2c3cc(ccc31)-c1csc(n1)CC(NC(=O)C1CC1C)C(=O)N1CCCC(N1)C(=O)OCC(C)(C)C2
- IC50 (second compound 0.000949 µM): < 31.6 nM
- IC50 (second compound 0.003 µM): < 31.6 nM
- IC50 (second compound 0.00949 µM): < 31.6 nM
- IC50 (second compound 0.03 µM): < 31.6 nM
- IC50 (second compound 0.0949 µM): < 31.6 nM
- IC50 (second compound 0.3 µM): < 31.6 nM
- viability, T/C (second compound 0.000949 µM, first compound 0.0316 µM): 36.1%
- viability, T/C (second compound 0.000949 µM, first compound 0.1 µM): 34.6%
- viability, T/C (second compound 0.000949 µM, first compound 0.316 µM): 36.9%
- viability, T/C (second compound 0.000949 µM, first compound 1 µM): 38.4%
- viability, T/C (second compound 0.000949 µM, first compound 3.16 µM): 15.5%
- viability, T/C (second compound 0.000949 µM, first compound 10 µM): 51.6%
- viability, T/C (second compound 0.003 µM, first compound 0.0316 µM): 22.1%
- viability, T/C (second compound 0.003 µM, first compound 0.1 µM): 24.1%
- viability, T/C (second compound 0.003 µM, first compound 0.316 µM): 24.7%
- viability, T/C (second compound 0.003 µM, first compound 1 µM): 27.2%
- viability, T/C (second compound 0.003 µM, first compound 3.16 µM): 15.2%
- viability, T/C (second compound 0.003 µM, first compound 10 µM): 50.2%
- viability, T/C (second compound 0.00949 µM, first compound 0.0316 µM): 23.4%
- viability, T/C (second compound 0.00949 µM, first compound 0.1 µM): 24.7%
- viability, T/C (second compound 0.00949 µM, first compound 0.316 µM): 23.6%
- viability, T/C (second compound 0.00949 µM, first compound 1 µM): 25.8%
- viability, T/C (second compound 0.00949 µM, first compound 3.16 µM): 17.8%
- viability, T/C (second compound 0.00949 µM, first compound 10 µM): 46.1%
- viability, T/C (second compound 0.03 µM, first compound 0.0316 µM): 20.7%
- viability, T/C (second compound 0.03 µM, first compound 0.1 µM): 20.4%
- viability, T/C (second compound 0.03 µM, first compound 0.316 µM): 24.9%
- viability, T/C (second compound 0.03 µM, first compound 1 µM): 27.7%
- viability, T/C (second compound 0.03 µM, first compound 3.16 µM): 17.4%
- viability, T/C (second compound 0.03 µM, first compound 10 µM): 57.6%
- viability, T/C (second compound 0.0949 µM, first compound 0.0316 µM): 21.6%
- viability, T/C (second compound 0.0949 µM, first compound 0.1 µM): 22.1%
- viability, T/C (second compound 0.0949 µM, first compound 0.316 µM): 26.9%
- viability, T/C (second compound 0.0949 µM, first compound 1 µM): 32.8%
- viability, T/C (second compound 0.0949 µM, first compound 3.16 µM): 18.4%
- viability, T/C (second compound 0.0949 µM, first compound 10 µM): 49.6%
- viability, T/C (second compound 0.3 µM, first compound 0.0316 µM): 22.4%
- viability, T/C (second compound 0.3 µM, first compound 0.1 µM): 22.3%
- viability, T/C (second compound 0.3 µM, first compound 0.316 µM): 25.7%
- viability, T/C (second compound 0.3 µM, first compound 1 µM): 32.3%
- viability, T/C (second compound 0.3 µM, first compound 3.16 µM): 22.3%
- viability, T/C (second compound 0.3 µM, first compound 10 µM): 51.4%

SMILES: C=CC(=O)Nc1cc(Nc2nccc(-c3cn(C)c4ccccc34)n2)c(OC)cc1N(C)CCN(C)C + C#Cc1c(F)ccc2cc(O)cc(-c3ncc4c(N5CC6CCC(C5)N6)nc(OCC56CCCN5CC(F)C6)nc4c3F)c12
- IC50 (second compound 0.0316 µM): > 1000 nM
- IC50 (second compound 0.1 µM): > 1000 nM
- IC50 (second compound 0.316 µM): 94.2 nM
- IC50 (second compound 1 µM): < 3.16 nM
- IC50 (second compound 3.16 µM): < 3.16 nM
- IC50 (second compound 10 µM): < 3.16 nM
- viability, T/C [1]: 83.7%
- viability, T/C [2]: 97.5%
- viability, T/C [3]: 85.8%
- viability, T/C [4]: 74%
- viability, T/C [5]: 66%
- viability, T/C [6]: 57.7%
- viability, T/C [7]: 74.5%
- viability, T/C [8]: 91.4%
- viability, T/C [9]: 68.9%
- viability, T/C [10]: 58.2%
- viability, T/C [11]: 62.6%
- viability, T/C [12]: 50.2%
- viability, T/C [13]: 72.4%
- viability, T/C [14]: 69.8%
- viability, T/C [15]: 47.7%
- viability, T/C [16]: 56.5%
- viability, T/C [17]: 42.2%
- viability, T/C [18]: 40.2%
- viability, T/C [19]: 50.9%
- viability, T/C [20]: 44.5%
- viability, T/C [21]: 34.1%
- viability, T/C [22]: 35.9%
- viability, T/C [23]: 33.8%
- viability, T/C [24]: 31.6%
- viability, T/C [25]: 33.6%
- viability, T/C [26]: 32.9%
- viability, T/C [27]: 27.6%
- viability, T/C [28]: 23.7%
- viability, T/C [29]: 26.4%
- viability, T/C [30]: 22.4%
- viability, T/C [31]: 23.2%
- viability, T/C [32]: 20.7%
- viability, T/C [33]: 22.2%
- viability, T/C [34]: 22.1%
- viability, T/C [35]: 19.9%
- viability, T/C [36]: 19.6%
